Experimental data taken from ChEMBL document CHEMBL4507274 (2021).

Legend:
[1] = system: Epidermal growth factor receptor (Homo sapiens), P00533 [UNDEFINED MUTATION]; settings: Compound concentration 100.0 nM
[2] = target: Mitogen-activated protein kinase kinase kinase 20 (Homo sapiens) (UniProt Q9NYL2); settings: Compound concentration 100.0 nM
[3] = system: Epidermal growth factor receptor (Homo sapiens), P00533 [UNDEFINED MUTATION]; settings: Compound concentration 100.0 nM; remark: listed apart in the source
[4] = system: Epidermal growth factor receptor (Homo sapiens), P00533 [L858R]; settings: Compound concentration 100.0 nM
[5] = system: Epidermal growth factor receptor (Homo sapiens), P00533 [L861Q]; settings: Compound concentration 100.0 nM
[6] = target: Protein kinase C beta type (Homo sapiens) (UniProt P05771); assay: PKCBII(h) Upstate kinase activity assay; settings: Compound concentration 10.0 uM
[7] = target: Cyclin-dependent kinase 2/cyclin A (Homo sapiens) (UniProt P24941+P20248+P78396); assay: CDK2/ cyclin A (h) Upstate kinase activity assay; format: protein-complex assay; settings: Compound concentration 10.0 uM
[8] = target: Serine/threonine-protein kinase Chk2 (Homo sapiens) (UniProt O96017); assay: CHK2 (h) Upstate kinase activity assay; settings: Compound concentration 10.0 uM
Chain of Serine/threonine-protein kinase Chk2 (Homo sapiens) (O96017 whole entry): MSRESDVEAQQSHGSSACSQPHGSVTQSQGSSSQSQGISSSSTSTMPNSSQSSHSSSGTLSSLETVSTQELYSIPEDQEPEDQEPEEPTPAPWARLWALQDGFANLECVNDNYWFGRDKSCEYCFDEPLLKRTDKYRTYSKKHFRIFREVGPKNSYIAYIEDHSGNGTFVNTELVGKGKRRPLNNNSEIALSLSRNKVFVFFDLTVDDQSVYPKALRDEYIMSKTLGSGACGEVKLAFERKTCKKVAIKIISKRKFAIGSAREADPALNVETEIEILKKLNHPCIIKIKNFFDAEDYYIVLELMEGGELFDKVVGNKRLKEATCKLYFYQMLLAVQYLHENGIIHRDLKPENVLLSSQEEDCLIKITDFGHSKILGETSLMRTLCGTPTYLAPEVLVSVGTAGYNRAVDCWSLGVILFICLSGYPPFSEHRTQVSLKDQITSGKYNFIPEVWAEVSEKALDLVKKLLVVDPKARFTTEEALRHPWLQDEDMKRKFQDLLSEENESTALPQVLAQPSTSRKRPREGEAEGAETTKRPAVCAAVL

[9] = species: Rattus norvegicus; settings: Compound concentration 10.0 uM
[10] = target: Tyrosine-protein kinase receptor UFO (Homo sapiens) (UniProt P30530); assay: Axl (h) Upstate kinase activity assay; settings: Compound concentration 10.0 uM
[11] = system: A-431; assay: Skin A431 cell line MDS Pharma Services Proliferation Assay; format: functional, cell-based, Homo sapiens
[12] = system: A498; assay: Kidney A-498 cell line MDS Pharma Services Proliferation Assay; format: functional, cell-based, Homo sapiens
[13] = target: Mitogen-activated protein kinase 1 (Homo sapiens) (UniProt P28482); assay: MAPK2 (h) Upstate kinase activity assay; settings: Compound concentration 10.0 uM
Chain of Mitogen-activated protein kinase 1 (Homo sapiens) (P28482 whole entry): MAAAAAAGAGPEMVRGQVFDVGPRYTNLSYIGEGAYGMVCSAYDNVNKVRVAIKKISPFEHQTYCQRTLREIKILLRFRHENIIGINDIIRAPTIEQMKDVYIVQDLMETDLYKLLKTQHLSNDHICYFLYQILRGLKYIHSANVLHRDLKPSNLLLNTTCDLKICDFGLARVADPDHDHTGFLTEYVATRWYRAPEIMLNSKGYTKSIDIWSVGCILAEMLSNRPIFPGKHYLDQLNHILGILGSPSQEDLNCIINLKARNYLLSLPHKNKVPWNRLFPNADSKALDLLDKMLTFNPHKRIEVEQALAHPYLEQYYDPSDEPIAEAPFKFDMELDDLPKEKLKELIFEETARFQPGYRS

[14] = target: Mitogen-activated protein kinase 8 (Homo sapiens) (UniProt P45983); assay: JNK1alpha1 (h) Upstate kinase activity assay; settings: Compound concentration 10.0 uM
[15] = target: Protein kinase C delta type (Homo sapiens) (UniProt Q05655); assay: PKCdelta (h) Upstate kinase activity assay; settings: Compound concentration 10.0 uM
Chain of Protein kinase C delta type (Homo sapiens) (Q05655 whole entry, looked up): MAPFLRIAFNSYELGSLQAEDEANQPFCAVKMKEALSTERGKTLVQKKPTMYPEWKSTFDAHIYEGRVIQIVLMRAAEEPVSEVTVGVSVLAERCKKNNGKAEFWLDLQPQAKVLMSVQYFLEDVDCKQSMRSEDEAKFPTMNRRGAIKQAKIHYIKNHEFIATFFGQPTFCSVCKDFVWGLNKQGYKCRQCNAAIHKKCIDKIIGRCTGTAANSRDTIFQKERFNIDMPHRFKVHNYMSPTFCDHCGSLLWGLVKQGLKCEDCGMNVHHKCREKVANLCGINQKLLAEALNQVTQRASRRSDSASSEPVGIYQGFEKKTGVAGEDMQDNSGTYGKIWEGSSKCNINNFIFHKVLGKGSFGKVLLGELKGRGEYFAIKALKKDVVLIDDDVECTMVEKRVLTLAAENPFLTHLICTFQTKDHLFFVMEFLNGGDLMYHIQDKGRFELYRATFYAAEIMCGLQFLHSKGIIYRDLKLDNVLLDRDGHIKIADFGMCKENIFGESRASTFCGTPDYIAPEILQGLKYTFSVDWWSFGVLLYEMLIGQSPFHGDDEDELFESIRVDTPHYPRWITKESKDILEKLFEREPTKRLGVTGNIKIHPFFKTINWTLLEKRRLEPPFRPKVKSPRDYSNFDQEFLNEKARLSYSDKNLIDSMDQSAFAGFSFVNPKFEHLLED

[16] = target: T1, Dual specificity mitogen-activated protein kinase kinase 6 (Homo sapiens) (UniProt P52564); assay: MKK6 (h) Upstate kinase activity assay; settings: Compound concentration 10.0 uM
T1 sequence (whole entry): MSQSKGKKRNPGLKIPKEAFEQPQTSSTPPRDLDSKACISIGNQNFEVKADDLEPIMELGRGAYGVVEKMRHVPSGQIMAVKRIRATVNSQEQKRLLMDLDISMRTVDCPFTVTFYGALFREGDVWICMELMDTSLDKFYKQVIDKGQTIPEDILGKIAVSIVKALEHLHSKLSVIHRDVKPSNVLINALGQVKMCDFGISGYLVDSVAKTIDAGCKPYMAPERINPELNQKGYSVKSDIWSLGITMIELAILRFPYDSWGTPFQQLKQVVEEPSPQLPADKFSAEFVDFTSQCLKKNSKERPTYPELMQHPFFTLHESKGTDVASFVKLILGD

[17] = target: ALK tyrosine kinase receptor (Homo sapiens) (UniProt Q9UM73); assay: ALK (h) Upstate kinase activity assay; settings: Compound concentration 10.0 uM
[18] = target: Tyrosine-protein kinase Lyn (Homo sapiens) (UniProt P07948); assay: Lyn (h) Upstate kinase activity assay; settings: Compound concentration 10.0 uM
Chain of Tyrosine-protein kinase Lyn (Homo sapiens) (P07948 2-512 limits assumed): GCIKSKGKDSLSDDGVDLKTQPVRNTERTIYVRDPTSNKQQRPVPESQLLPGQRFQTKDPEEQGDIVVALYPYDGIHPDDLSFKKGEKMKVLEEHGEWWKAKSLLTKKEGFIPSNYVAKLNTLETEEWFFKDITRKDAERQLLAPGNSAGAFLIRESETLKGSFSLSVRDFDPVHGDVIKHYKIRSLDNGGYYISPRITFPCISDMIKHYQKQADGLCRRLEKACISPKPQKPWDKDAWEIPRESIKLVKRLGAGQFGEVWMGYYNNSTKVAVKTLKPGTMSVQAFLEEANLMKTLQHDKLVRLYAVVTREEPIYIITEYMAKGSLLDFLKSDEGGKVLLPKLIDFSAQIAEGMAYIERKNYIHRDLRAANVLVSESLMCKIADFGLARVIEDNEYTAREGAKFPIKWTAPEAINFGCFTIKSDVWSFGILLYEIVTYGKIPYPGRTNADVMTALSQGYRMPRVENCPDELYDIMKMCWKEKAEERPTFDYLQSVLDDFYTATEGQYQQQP

[19] = target: D(3) dopamine receptor (Homo sapiens) (UniProt P35462); settings: Compound concentration 10.0 uM
[20] = target: RAC-alpha serine/threonine-protein kinase (Homo sapiens) (UniProt P31749); assay: PKBalpha (h) Upstate kinase activity assay; settings: Compound concentration 10.0 uM
[21] = target: Platelet-derived growth factor receptor alpha (Homo sapiens) (UniProt P16234); assay: PDGFRalpha (h) Upstate kinase activity assay; settings: Compound concentration 10.0 uM
Chain of Platelet-derived growth factor receptor alpha (Homo sapiens) (P16234 whole entry): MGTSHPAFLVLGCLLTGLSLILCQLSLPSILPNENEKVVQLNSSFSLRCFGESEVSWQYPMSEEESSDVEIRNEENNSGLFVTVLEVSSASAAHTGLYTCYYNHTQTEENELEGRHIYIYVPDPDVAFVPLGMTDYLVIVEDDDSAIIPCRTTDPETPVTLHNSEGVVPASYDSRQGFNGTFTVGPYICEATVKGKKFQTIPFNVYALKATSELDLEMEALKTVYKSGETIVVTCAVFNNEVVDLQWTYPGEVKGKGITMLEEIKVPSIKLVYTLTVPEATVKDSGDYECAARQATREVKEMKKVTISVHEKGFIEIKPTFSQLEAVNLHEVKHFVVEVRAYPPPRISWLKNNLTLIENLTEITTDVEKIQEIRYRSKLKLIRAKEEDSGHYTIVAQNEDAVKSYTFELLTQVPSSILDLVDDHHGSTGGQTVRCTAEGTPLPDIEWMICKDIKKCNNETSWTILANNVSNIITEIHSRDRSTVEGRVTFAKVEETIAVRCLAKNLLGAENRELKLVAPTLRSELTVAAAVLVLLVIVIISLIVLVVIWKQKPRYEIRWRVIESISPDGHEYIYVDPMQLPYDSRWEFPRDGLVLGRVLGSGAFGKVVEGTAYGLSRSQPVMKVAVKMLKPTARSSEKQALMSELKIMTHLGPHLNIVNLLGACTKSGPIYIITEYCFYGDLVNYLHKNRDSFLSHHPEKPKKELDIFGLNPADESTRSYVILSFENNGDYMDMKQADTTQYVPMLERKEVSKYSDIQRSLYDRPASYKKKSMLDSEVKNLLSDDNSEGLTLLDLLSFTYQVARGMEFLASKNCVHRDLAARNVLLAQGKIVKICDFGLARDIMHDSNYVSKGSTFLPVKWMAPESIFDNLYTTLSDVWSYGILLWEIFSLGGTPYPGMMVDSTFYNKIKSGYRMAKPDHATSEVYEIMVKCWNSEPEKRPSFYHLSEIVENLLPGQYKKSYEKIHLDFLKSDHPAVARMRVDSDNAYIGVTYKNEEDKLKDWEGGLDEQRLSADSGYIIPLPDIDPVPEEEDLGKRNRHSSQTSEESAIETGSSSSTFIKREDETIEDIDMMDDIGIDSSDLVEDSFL

[22] = target: T2, Aurora kinase A (Homo sapiens) (UniProt O14965); assay: Aurora A (h) Upstate kinase activity assay; settings: Compound concentration 10.0 uM
T2 sequence (whole entry): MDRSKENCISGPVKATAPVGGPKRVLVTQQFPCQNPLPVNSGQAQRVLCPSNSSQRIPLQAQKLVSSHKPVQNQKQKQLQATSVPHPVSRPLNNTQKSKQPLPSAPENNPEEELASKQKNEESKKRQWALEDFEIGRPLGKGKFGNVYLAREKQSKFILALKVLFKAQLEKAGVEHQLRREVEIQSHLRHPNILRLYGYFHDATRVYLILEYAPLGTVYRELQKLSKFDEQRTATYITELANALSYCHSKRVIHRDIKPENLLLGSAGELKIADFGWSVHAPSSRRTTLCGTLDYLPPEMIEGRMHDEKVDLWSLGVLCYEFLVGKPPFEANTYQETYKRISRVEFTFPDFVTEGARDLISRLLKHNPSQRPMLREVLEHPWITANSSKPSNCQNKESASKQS

[23] = target: Serine/threonine-protein kinase PAK 2 (Homo sapiens) (UniProt Q13177); assay: PAK2 (h) Upstate kinase activity assay; settings: Compound concentration 10.0 uM
Chain of Serine/threonine-protein kinase PAK 2 (Homo sapiens) (Q13177 whole entry): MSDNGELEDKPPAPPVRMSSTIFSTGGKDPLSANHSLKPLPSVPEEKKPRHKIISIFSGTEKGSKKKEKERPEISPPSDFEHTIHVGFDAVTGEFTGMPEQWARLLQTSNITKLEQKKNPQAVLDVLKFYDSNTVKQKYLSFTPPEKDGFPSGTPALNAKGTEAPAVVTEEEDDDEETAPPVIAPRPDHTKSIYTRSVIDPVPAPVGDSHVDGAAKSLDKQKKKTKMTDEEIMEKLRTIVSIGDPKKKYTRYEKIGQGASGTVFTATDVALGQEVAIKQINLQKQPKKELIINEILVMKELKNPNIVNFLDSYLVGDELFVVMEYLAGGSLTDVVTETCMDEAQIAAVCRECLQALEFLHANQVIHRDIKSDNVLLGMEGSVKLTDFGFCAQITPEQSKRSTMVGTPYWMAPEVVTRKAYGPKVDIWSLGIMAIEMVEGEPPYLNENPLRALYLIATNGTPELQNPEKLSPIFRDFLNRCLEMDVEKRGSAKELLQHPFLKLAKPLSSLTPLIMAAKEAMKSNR

[24] = target: Casein kinase II subunit alpha (Homo sapiens) (UniProt P68400); assay: CK2 (h) Upstate kinase activity assay; settings: Compound concentration 10.0 uM
Chain of Casein kinase II subunit alpha (Homo sapiens) (P68400 whole entry, looked up): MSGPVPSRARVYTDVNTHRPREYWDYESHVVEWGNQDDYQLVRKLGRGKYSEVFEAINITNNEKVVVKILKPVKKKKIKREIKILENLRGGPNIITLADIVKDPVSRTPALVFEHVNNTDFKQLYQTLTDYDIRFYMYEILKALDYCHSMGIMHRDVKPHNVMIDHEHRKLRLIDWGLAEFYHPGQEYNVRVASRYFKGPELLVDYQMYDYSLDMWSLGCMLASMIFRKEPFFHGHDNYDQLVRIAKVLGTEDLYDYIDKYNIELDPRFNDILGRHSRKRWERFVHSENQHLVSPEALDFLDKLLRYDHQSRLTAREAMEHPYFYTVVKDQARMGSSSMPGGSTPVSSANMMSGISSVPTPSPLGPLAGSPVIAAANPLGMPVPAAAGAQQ

[25] = system: ACHN; assay: Kidney ACHN cell line MDS Pharma Services Proliferation Assay; format: functional, cell-based, Homo sapiens
[26] = target: T3, Serine/threonine-protein kinase 3 (Homo sapiens) (UniProt Q13188); assay: MST2 (h) Upstate kinase activity assay; settings: Compound concentration 10.0 uM
T3 sequence (whole entry): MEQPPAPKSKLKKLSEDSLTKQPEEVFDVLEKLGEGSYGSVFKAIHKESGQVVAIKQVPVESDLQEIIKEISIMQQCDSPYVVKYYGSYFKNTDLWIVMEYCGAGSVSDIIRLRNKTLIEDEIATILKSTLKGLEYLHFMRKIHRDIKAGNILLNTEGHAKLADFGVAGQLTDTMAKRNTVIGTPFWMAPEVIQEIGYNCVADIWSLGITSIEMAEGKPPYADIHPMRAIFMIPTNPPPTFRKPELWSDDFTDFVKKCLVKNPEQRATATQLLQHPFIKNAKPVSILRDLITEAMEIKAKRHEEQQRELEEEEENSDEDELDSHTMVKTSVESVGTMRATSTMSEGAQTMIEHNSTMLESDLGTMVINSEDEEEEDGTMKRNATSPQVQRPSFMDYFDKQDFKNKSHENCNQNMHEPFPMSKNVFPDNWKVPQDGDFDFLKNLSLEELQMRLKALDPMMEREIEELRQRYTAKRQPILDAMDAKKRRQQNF

Chain of Mitogen-activated protein kinase kinase kinase 20 (Homo sapiens) (Q9NYL2 2-800 limits assumed): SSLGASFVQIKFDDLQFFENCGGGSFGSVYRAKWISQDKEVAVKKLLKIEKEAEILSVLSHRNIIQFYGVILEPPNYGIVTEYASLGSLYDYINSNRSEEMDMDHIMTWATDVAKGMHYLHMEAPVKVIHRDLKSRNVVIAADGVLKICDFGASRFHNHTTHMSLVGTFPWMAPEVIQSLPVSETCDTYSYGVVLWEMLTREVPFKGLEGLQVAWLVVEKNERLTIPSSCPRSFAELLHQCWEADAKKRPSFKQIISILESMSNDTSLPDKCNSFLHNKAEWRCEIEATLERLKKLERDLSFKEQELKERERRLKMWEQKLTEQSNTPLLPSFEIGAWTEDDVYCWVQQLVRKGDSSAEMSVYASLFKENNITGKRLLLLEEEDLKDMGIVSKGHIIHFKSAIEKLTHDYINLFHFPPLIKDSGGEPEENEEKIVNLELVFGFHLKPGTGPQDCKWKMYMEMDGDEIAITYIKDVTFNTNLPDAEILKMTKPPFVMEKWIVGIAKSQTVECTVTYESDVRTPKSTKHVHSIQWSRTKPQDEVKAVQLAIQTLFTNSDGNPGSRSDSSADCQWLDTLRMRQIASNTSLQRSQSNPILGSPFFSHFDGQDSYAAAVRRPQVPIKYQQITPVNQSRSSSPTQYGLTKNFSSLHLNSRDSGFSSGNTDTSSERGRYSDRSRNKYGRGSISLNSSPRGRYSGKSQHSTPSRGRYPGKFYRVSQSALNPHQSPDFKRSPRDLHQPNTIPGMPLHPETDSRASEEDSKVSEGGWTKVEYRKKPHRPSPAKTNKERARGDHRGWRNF

Cn1cc(Cl)c2c(Oc3c(F)cc(Nc4cc(Cl)nc(N)n4)cc3F)ccnc21 [BAY-4900]
residual activity [1]: 88%
residual activity [2]: 97%
residual activity [3]: 73%
residual activity [4]: 98%
residual activity [5]: 100%

Cc1c[nH]c2nccc(Oc3c(F)cc(Nc4cc(Cl)nc(N)n4)cc3F)c12 [BAY-549]
inhibition [6]: 9%
inhibition [7]: 20%
inhibition [8]: 64%
inhibition [9]: 24.9%
inhibition [10]: 85%
IC50 ([11]; Homo sapiens, A-431): 5.5 µM
TGI ([11]; Homo sapiens, A-431): 31 µM
CC50 ([11]; Homo sapiens, A-431, read-out: LC50 (the source's name)): > 100 µM
Mean % growth (n = 2) for 1.0 µM probe concentration ([11]; ± SEM 3 % growth): 77%
Mean % growth (n = 2) for 10.0 µM probe concentration ([11]; ± SEM 3 % growth): 35%
Mean % growth (n = 2) for 100.0 µM probe concentration ([11]; ± SEM 5 % growth): -36%
Mean % growth (n = 2) for 0.1 µM probe concentration ([11]; ± SEM 6 % growth): 103%
Mean % growth (n = 2) for 0.01 µM probe concentration ([11]; ± SEM 9 % growth): 92%
IC50 ([12]; Homo sapiens, A498): 7.8 µM
TGI ([12]; Homo sapiens, A498): 70 µM
CC50 ([12]; Homo sapiens, A498, read-out: LC50 (the source's name)): > 100 µM
Mean % growth (n = 2) for 0.01 µM probe concentration ([12]; ± SEM 2 % growth): 99%
Mean % growth (n = 2) for 10.0 µM probe concentration ([12]; ± SEM 2 % growth): 26%
Mean % growth (n = 2) for 100.0 µM probe concentration ([12]; ± SEM 2 % growth): -1%
Mean % growth (n = 2) for 0.1 µM probe concentration ([12]; ± SEM 5 % growth): 93%
Mean % growth (n = 2) for 1.0 µM probe concentration ([12]; ± SEM 5 % growth): 98%
inhibition [13]: 17%
inhibition [14]: 22%
inhibition [15]: 16%
inhibition [16]: 6%
inhibition [17]: 78%
inhibition [18]: 31%
inhibition [19]: -5.8%
inhibition [20]: 84%
inhibition [21]: 3%
inhibition [22]: 77%
inhibition [23]: 2%
inhibition [24]: 6%
Mean % growth (n = 2) for 10.0 µM probe concentration [25]: 27%
IC50 ([25]; Homo sapiens, ACHN): 3.6 µM
TGI ([25]; Homo sapiens, ACHN): 32 µM
CC50 ([25]; Homo sapiens, ACHN, read-out: LC50 (the source's name)): > 100 µM
Mean % growth (n = 2) for 0.01 µM probe concentration ([25]; ± SEM 1 % growth): 103%
Mean % growth (n = 2) for 0.1 µM probe concentration ([25]; ± SEM 2 % growth): 106%
Mean % growth (n = 2) for 100.0 µM probe concentration ([25]; ± SEM 4 % growth): -25%
Mean % growth (n = 2) for 1.0 µM probe concentration ([25]; ± SEM 10 % growth): 60%
inhibition [26]: 59%
